Literature values as cited in US9399652B2, “Synthetic route to pactamycin and pactamycin analogs” (The University of North Carolina at Chapel Hill, priority 2013, dated 2016).

Settings: literature value (ref. 11); cell line not given; read-out: cytotoxicity (IC50)

CC(=O)c1cccc(N[C@H]2[C@H](N)[C@@](NC(=O)N(C)C)([C@H](C)O)[C@@](C)(O)[C@@]2(O)COC(=O)c2c(C)cccc2O)c1 [Pactamycin]
IC50: 95 nM
